Series [1] is described as follows: Plasma stability assay, mouse. Format: in vitro ADME. The note with it: for Calculated Concentration: 0h standards set to Actual Concentration 100, IS warfarin, replicates. As to the method: page 32: Aldrich, Saint Louis, MO) were diluted into 0.1 M potassium phosphate buffer (PBS, pH 7.4, KH2PO4, Cat. No: P284-500; K2HPO4, Cat. No: BP363-500, Fisher Scientific, Fair Lawn, NJ) and mixed well. 40 μL of this solution was transferred into the above compounds plates. For the time 0 plate, 3 fold (v:v) cold acetonitrile with warfarin (400 ng/mL) as the internal standard was added to […] and B in PBS, pH 7.4) and no incubation. For the other five time points’ plates, 10 μL NADPH regenerating agent mixer was added to each well to initiate the reaction, the plate was sealed and incubated at 37° C on an orbital shaker (100 rpm) for the required time, followed by quenching of the reaction by adding 3-fold volume of cold acetonitrile with internal standard to each well. The final concentration of each component applied in this reaction was liver microsome protein at 0.5 […] After quenching, all plates were securely sealed and thoroughly mixed at 600 rpm for 10 minutes. Subsequently, centrifugation was performed at 4000 rpm for 20 minutes. The resulting supernatants […] analysis using UPLC–MS/MS. The assessment of metabolic stability involved determining the half- life through a least-squares fit of multiple time points, employing first-order kinetics. Plasma stability assay5: The degradation of human or mouse plasma was assessed by monitoring the gradual reduction of the parent compound over specified time intervals (0, 3, 24, and 48 hours). Human and mouse plasma samples were sourced from GeneTex (Irvine, CA). Test compound stock solutions, prepared at 10 mM in DMSO, were dispensed into triplicate wells of a 96-well microplate using the Labcyte Echo 650 dispenser. For plates, excluding the time 0-hour plate, plasma was […] The plate was sealed, incubated at 37°C on an orbital shaker (100 rpm) for the required duration, and then quenched with cold acetonitrile, incorporating warfarin as the internal standard. In the case of the time 0-hour plate, cold acetonitrile with the internal standard was added to each well before introducing plasma, eliminating page 33: the need for further incubation. Following quenching, all plates were thoroughly mixed at 600 rpm for 10 minutes and centrifuged at 4000 rpm for 20 minutes. Supernatants were transferred to […] MS/MS analysis. Plasma stability was evaluated by determining the half-life through a least-squares fit of multiple time points based on first-order kinetics. Plasma protein binding assay: Test compound stock solutions were prepared at a concentration of 10 mM in DMSO. A Single-Use RED (Rapid Equilibrium Dialysis) device was acquired from Thermo Scientific (Cat. No: 99006, Rockford, IL). The sample preparation for plasma protein binding followed a modified version of Waters' method6. After thawing, plasma was centrifuged at 1000 rpm for 10 minutes to eliminate any particulates. Each compound was then prepared at a concentration of 10 µM in either human or mouse plasma. In the plasma protein binding assessment, 300 µL of spiked plasma solutions were introduced into the sample chamber (indicated by the red ring), while 550 µL of DPBS was added to the adjacent chamber. The plate was sealed and incubated at 37°C on an orbital shaker (100 rpm) for 4 hours. Post -incubation, 50 µL aliquots were withdrawn from each side of the insert and dispensed into a 96 -well storage plate. To create analytically identical sample matrices (matrix matching), an equivalent volume of blank plasma or DPBS was added to the necessary wells, followed by quenching w ith 3-fold (v:v) cold acetonitrile containing warfarin as the internal standard. Subsequently, the sealed plates were well -mixed at 600 rpm for 10 minutes and then centrifuged at 4000 rpm for 20 minutes. Supernatants were transferred to analytical […] Test compound concentrations were quantified in both the buffer and plasma chambers by determining peak areas relative to the internal standard. […]

Series [2] is described as follows: Plasma protein binding assay (RED), human. It counts as in vitro ADME. As to the method:
page 33: the need for further incubation. Following quenching, all plates were thoroughly mixed at 600 rpm for 10 minutes and centrifuged at 4000 rpm for 20 minutes. Supernatants were transferred to […] MS/MS analysis. Plasma stability was evaluated by determining the half-life through a least-squares fit of multiple time points based on first-order kinetics. Plasma protein binding assay: Test compound stock solutions were prepared at a concentration of 10 mM in DMSO. A Single-Use RED (Rapid Equilibrium Dialysis) device was acquired from Thermo Scientific (Cat. No: 99006, Rockford, IL). The sample preparation for plasma protein binding followed a modified version of Waters' method6. After thawing, plasma was centrifuged at 1000 rpm for 10 minutes to eliminate any particulates. Each compound was then prepared at a concentration of 10 µM in either human or mouse plasma. In the plasma protein binding assessment, 300 µL of spiked plasma solutions were introduced into the sample chamber (indicated by the red ring), while 550 µL of DPBS was added to the adjacent chamber. The plate was sealed and incubated at 37°C on an orbital shaker (100 rpm) for 4 hours. Post -incubation, 50 µL aliquots were withdrawn from each side of the insert and dispensed into a 96 -well storage plate. To create analytically identical sample matrices (matrix matching), an equivalent volume of blank plasma or DPBS was added to the necessary wells, followed by quenching w ith 3-fold (v:v) cold acetonitrile containing warfarin as the internal standard. Subsequently, the sealed plates were well -mixed at 600 rpm for 10 minutes and then centrifuged at 4000 rpm for 20 minutes. Supernatants were transferred to analytical […] Test compound concentrations were quantified in both the buffer and plasma chambers by determining peak areas relative to the internal standard. The percentage of the test compound bound to plasma was calculated using the following equation (4): %Free = (Concentration buffer chamber / concentration plasma chamber) x 100% and equation (5) %Bound = 100% - %Free.

[3] abbreviates: mouse plasma, regression of log concentration over time points 0, 3, 24, 48 h.
[4] abbreviates: human plasma, single replicates.

SMILES strings stand for the structures. “And” between values parts separate entries of the source, which are not always exact repeats. Equal entries are not always repeated.

In series [1] (mouse), `O=C1CCC(N2Cc3cc(Nc4noc5ccccc45)ccc3C2=O)C(=O)N1` (stereo not shown) [SJ3149] returned a Plasma stability of over 10 h. For the same molecule, in series [2] (human, plasma), the unbound share (fraction unbound) at 4 h, 10 µM is 0.023.

For `O=C1CCC(N2Cc3cc(Nc4noc5ccccc45)ccc3C2=O)C(=O)N1` (stereo not shown) [SJ001043149-1], the “Calculated Concentration” value in series [1] (mouse plasma, time point 3h) is 89.527 and 94.878 and 96.383. Further, in series [1] (mouse plasma, time point 24h), the “Calculated Concentration” value was 48.667 and 48.995 and 51.103. Moreover, the “Calculated Concentration” value in series [1] (mouse plasma, time point 48h) is 26.458 and 25.987 and 26.969. Moreover, in series [1] (setting [3]), the Ke was 0.028 and the “t(1/2)” value is given as 24.7479. Further, the “AVG %Bound” value in series [2] (human plasma, average of 3 replicates) was 97.7%. For the same molecule, in series [2] (setting [4]), the “%Bound” value is 97.5829% and 97.7158% and 97.77%; the “%Free” value is 2.417% and 2.284% and 2.23%.

These data come from article PMC10791743, “Selective CK1α degraders exert antiproliferative activity against a broad range of human cancer cell lines” (Nature Communications, 2024).
